In one test the target is T1, TYK2 JH2 (Homo sapiens, UniProt P29597).
T1 construct: purchased DiscoverX (KINOMEscan KdELECT service); host or cells: E. coli BL21-derived (T7 phage display) or HEK-293
Description: TYK2 JH2 binding assay (KINOMEscan KdELECT competitive binding). The settings on record: TYK2 JH2 domain. The method, boiled down:
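The assay measures displacement of DNA- or phage-tagged TYK2 pseudokinase domain from an affinity resin; compound binding lowers the amount captured, read by qPCR. Incubation lasts 1 h at room temperature.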

In test [1] the test system is JAK1/TYK2 pSTAT5 (Tyr694/699) in THP-1 cell line. Description: IFNa-stimulated JAK1/TYK2 pSTAT5 (Tyr694/699) inhibition cellular assay, AlphaLISA. In kind it is cell-based. The note with it: Homo sapiens, THP-1 cells, IFNa-stimulated, AlphaLISA (Assay B). The method, boiled down: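 THP-1 cells (2e4/well) in HBSS preincubated 1 h at 37° C. with compound (final 10000–0.04 nM, 8 points, 6-fold), then stimulated with IFNa (100 ng/mL stock) for 30 min before lysis. pSTAT5 (Tyr694/699) read by AlphaLISA at 615 nm; IC50 from four-parameter logistic fit with bottom fixed at 0 and Hill slope at −1.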
On the technique in general: Bead proximity is the source of the signal in Alpha formats.

Setting [2] is: KINOMEscan KdELECT (Assay A), read-out: Biochemical TYK2_JH2_Kd.
Setting [3] is: read-out: Cellular THP1_IFNa-pSTATS_IC50.
The mark [4] stands for this setting: DiscoverX KINOMEscan KdELECT (Assay A), read-out: Biochemical TYK2_DiscoverX_JH2_BND_Kd.
[5] abbreviates: read-out: Cellular_THP1_IFNa-pSTATS_TYK2.

Among the data in patent publication US20240025906A1 (NEURON23, INC., priority 2022, published 2024) are Kd and IC50 values, retold here.

Where two headings read alike, the source gives them in different places. Bounds are passed on as bounds.

T1 sequence (P29597 589-875 limits assumed): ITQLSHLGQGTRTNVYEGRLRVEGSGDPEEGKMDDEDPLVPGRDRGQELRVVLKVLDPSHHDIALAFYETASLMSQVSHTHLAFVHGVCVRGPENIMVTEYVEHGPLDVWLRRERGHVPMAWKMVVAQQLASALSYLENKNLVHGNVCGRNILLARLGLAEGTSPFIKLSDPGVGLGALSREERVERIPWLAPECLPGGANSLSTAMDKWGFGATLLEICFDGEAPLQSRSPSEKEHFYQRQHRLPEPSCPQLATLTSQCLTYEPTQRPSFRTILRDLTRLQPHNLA

Consider `CNc1ncc(-c2ccc(-c3ccnn3C)cc2)c2cc(NC(=O)C3CC3)ncc12` [Example 173, N-(5-(4-(1-methyl-1H-pyrazol-5-yl)phenyl)-8-(methylamino)-2,7-naphthyridin-3-yl)cyclopropanecarboxamide], for which the Kd on TYK2 JH2 (setting [2]) is no more than 100 nM. Also, the IC50 in test [1] (setting [3]) was no more than 500 nM.
Taken in the same sequence, the figures for `C=C(c1ccccc1OC)c1cnc(NC)c2cnc(NC(=O)C3CC3)cc12` [Example 175] were 100 to 1000 nM and greater than 500 nM.
Take `CNc1nccc2cc(NC(=O)C3CC3)nnc12` [Example 176, N-(8-(methylamino)pyrido[3,4-c]pyridazin-3-yl)cyclopropanecarboxamide]: the Kd at TYK2 JH2 (setting [2]) lay in the range of 100 to 1000 nM. For the same compound, in test [1] (setting [3]), the IC50 was greater than 500 nM.
As to `CNc1ncc(Br)c2cc(NC(=O)C3CC3)nnc12` [Example 177, N-(5-bromo-8-(methylamino)pyrido[3,4-c]pyridazin-3-yl)cyclopropanecarboxamide], the Kd on TYK2 JH2 (setting [2]) is no more than 100 nM. Besides, the IC50 in test [1] (setting [3]) was greater than 500 nM.
The corresponding values for `CNc1ncc(-c2ccccc2)c2cc(NC(=O)C3CC3)nnc12` [Example 178, N-(8-(methylamino)-5-phenylpyrido[3,4-c]pyridazin-3-yl)cyclopropanecarboxamide] are no more than 100 nM and greater than 500 nM.
Taken in the same sequence, the figures for `CNc1ncc(-c2nc3ccc(F)cc3o2)c2cc(NC(=O)C3CC3)ncc12` [Example 179, N-(5-(6-fluorobenzo[d]oxazol-2-yl)-8-(methylamino)-2,7-naphthyridin-3-yl)cyclopropanecarboxamide] were no more than 100 nM and no more than 500 nM.
The corresponding values for `CNc1ncc(-c2nc3c(OC)cccc3o2)c2cc(NC(=O)C3CC3)ncc12` [Example 180, N-(5-(4-methoxybenzo[d]oxazol-2-yl)-8-(methylamino)-2,7-naphthyridin-3-yl)cyclopropanecarboxamide] are no more than 100 nM and no more than 500 nM.
Consider `CNc1ncc(-c2nc3cc(F)ccc3o2)c2cc(NC(=O)C3CC3)ncc12` [Example 181, N-(5-(5-fluorobenzo[d]oxazol-2-yl)-8-(methylamino)-2,7-naphthyridin-3-yl)cyclopropanecarboxamide], for which the Kd at TYK2 JH2 (setting [2]) was no more than 100 nM. Besides, the IC50 in test [1] (setting [3]) was no more than 500 nM.
Taken in the same sequence, the figures for `CNc1ncc(-c2nc3c(F)cccc3o2)c2cc(NC(=O)C3CC3)ncc12` [Example 184, N-(5-(4-fluorobenzo[d]oxazol-2-yl)-8-(methylamino)-2,7-naphthyridin-3-yl)cyclopropanecarboxamide] were no more than 100 nM and no more than 500 nM.
The corresponding values for `CNc1ncc(-c2nc3cc(N4CCC4)ccn3n2)c2cc(NC(=O)C3CC3)ncc12` [Example 188, N-(5-(7-(azetidin-1-yl)-[1,2,4]triazolo[1,5-a]pyridin-2-yl)-8-(methylamino)-2,7-naphthyridin-3-yl)cyclopropanecarboxamide] are no more than 100 nM and no more than 500 nM.
`[2H]C([2H])([2H])Oc1ccc2oc(-c3cnc(NC)c4cnc(NC(=O)C5CC5)cc34)nc2c1` [Example 195, N-(5-(5-(methoxy-d3)benzo[d]oxazol-2-yl)-8-(methylamino)-2,7-naphthyridin-3-yl)cyclopropanecarboxamide]: on TYK2 JH2 (setting [4]), the Kd was no more than 100 nM. In addition, the IC50 in test [1] (setting [5]) is no more than 500 nM.
Taken in the same sequence, the figures for `CNc1ncc(-c2nc3cc(OC4CN(C(=O)OC(C)(C)C)C4)ccc3o2)c2cc(NC(=O)C3CC3)ncc12` [Example 196, tert-butyl 3-((2-(6-(cyclopropanecarboxamido)-1-(methylamino)-2,7-naphthyridin-4-yl)benzo[d]oxazol-5-yl)oxy)azetidine-1-carboxylate] were no more than 100 nM and no more than 500 nM.
Taken in the same sequence, the figures for `CNc1ncc(-c2nc3cc(OC4CNC4)ccc3o2)c2cc(NC(=O)C3CC3)ncc12` [Example 197, N-(5-(5-(azetidin-3-yloxy)benzo[d]oxazol-2-yl)-8-(methylamino)-2,7-naphthyridin-3-yl)cyclopropanecarboxamide] were no more than 100 nM and no more than 500 nM.
Taken in the same sequence, the figures for `CNc1ncc(-c2nc3cc(OC4CN(C)C4)ccc3o2)c2cc(NC(=O)C3CC3)ncc12` [Example 198, N-(8-(methylamino)-5-(5-((1-methylazetidin-3-yl)oxy)benzo[d]oxazol-2-yl)-2,7-naphthyridin-3-yl)cyclopropanecarboxamide] were no more than 100 nM and no more than 500 nM.
Consider `CNc1ncc(-c2nc3cc(O[C@H]4C[C@H](OC)C4)ccc3o2)c2cc(NC(=O)C3CC3)ncc12` [Example 199, N-(5-(5-((1r,3r)-3-methoxycyclobutoxy)benzo[d]oxazol-2-yl)-8-(methylamino)-2,7-naphthyridin-3-yl)cyclopropanecarboxamide], for which the Kd at TYK2 JH2 (setting [4]) was no more than 100 nM. In addition, the IC50 in test [1] (setting [5]) is no more than 500 nM.
Taken in the same sequence, the figures for `CNc1ncc(-c2nc3cc(O[C@H]4C[C@@H](OC)C4)ccc3o2)c2cc(NC(=O)C3CC3)ncc12` [Example 200, N-(5-(5-((1s,3s)-3-methoxycyclobutoxy)benzo[d]oxazol-2-yl)-8-(methylamino)-2,7-naphthyridin-3-yl)cyclopropanecarboxamide] were no more than 100 nM and no more than 500 nM.
Taken in the same sequence, the figures for `CNc1ncc(-c2nc3c(COC)cccc3o2)c2cc(NC(=O)C3CC3)ncc12` [Example 201, N-(5-(4-(methoxymethyl)benzo[d]oxazol-2-yl)-8-(methylamino)-2,7-naphthyridin-3-yl)cyclopropanecarboxamide] were no more than 100 nM and no more than 500 nM.
As for `CNc1ncc(-c2nc3cc(OC)c(OC)cc3o2)c2cc(NC(=O)C3CC3)ncc12` [Example 202, N-(5-(5,6-dimethoxybenzo[d]oxazol-2-yl)-8-(methylamino)-2,7-naphthyridin-3-yl)cyclopropanecarboxamide], the Kd on TYK2 JH2 (setting [4]) was no more than 100 nM. Moreover, in test [1] (setting [5]), the IC50 was no more than 500 nM.
The corresponding values for `CNc1ncc(-c2nc3ccc(OC)cc3o2)c2cc(NC(=O)C3CC3)ncc12` [Example 203, N-(5-(6-methoxybenzo[d]oxazol-2-yl)-8-(methylamino)-2,7-naphthyridin-3-yl)cyclopropanecarboxamide] are no more than 100 nM and no more than 500 nM.
The corresponding values for `CNc1ncc(-c2nc3c(Cl)cccc3o2)c2cc(NC(=O)C3CC3)ncc12` [Example 204, N-(5-(4-chlorobenzo[d]oxazol-2-yl)-8-(methylamino)-2,7-naphthyridin-3-yl)cyclopropanecarboxamide] are no more than 100 nM and no more than 500 nM.
The corresponding values for `CNc1ncc(-c2nc3cccc(C)c3o2)c2cc(NC(=O)C3CC3)ncc12` [Example 205, N-(8-(methylamino)-5-(7-methylbenzo[d]oxazol-2-yl)-2,7-naphthyridin-3-yl)cyclopropanecarboxamide] are no more than 100 nM and no more than 500 nM.
On to `CNc1ncc(-c2nc3ccc(C)cc3o2)c2cc(NC(=O)C3CC3)ncc12` [Example 206, N-(8-(methylamino)-5-(6-methylbenzo[d]oxazol-2-yl)-2,7-naphthyridin-3-yl)cyclopropanecarboxamide], for which the Kd at TYK2 JH2 (setting [4]) was no more than 100 nM. Further, in test [1] (setting [5]), the IC50 was no more than 500 nM.
The corresponding values for `CNc1ncc(-c2nc3cc(C)ccc3o2)c2cc(NC(=O)C3CC3)ncc12` [Example 207, N-(8-(methylamino)-5-(5-methylbenzo[d]oxazol-2-yl)-2,7-naphthyridin-3-yl)cyclopropanecarboxamide] are no more than 100 nM and no more than 500 nM.
The corresponding values for `CNc1ncc(-c2nc3cccc(OC)c3o2)c2cc(NC(=O)C3CC3)ncc12` [Example 208, N-(5-(7-methoxybenzo[d]oxazol-2-yl)-8-(methylamino)-2,7-naphthyridin-3-yl)cyclopropanecarboxamide] are no more than 100 nM and no more than 500 nM.
The corresponding values for `CNc1ncc(-c2nc3cc(Br)ccc3o2)c2cc(NC(=O)C3CC3)ncc12` [Example 209, N-(5-(5-bromobenzo[d]oxazol-2-yl)-8-(methylamino)-2,7-naphthyridin-3-yl)cyclopropanecarboxamide] are no more than 100 nM and no more than 500 nM.
As to `CNc1ncc(-c2nc3cc(C#N)ccc3o2)c2cc(NC(=O)C3CC3)ncc12` [Example 210, N-(5-(5-cyanobenzo[d]oxazol-2-yl)-8-(methylamino)-2,7-naphthyridin-3-yl)cyclopropanecarboxamide], the Kd on TYK2 JH2 (setting [4]) was no more than 100 nM. The IC50 in test [1] (setting [5]) is no more than 500 nM.
The corresponding values for `CNc1ncc(-c2nc3cccc(Cl)c3o2)c2cc(NC(=O)C3CC3)ncc12` [Example 211, N-(5-(7-chlorobenzo[d]oxazol-2-yl)-8-(methylamino)-2,7-naphthyridin-3-yl)cyclopropanecarboxamide] are no more than 100 nM and no more than 500 nM.
Taken in the same sequence, the figures for `CNc1ncc(-c2nc3cc(Cl)ccc3o2)c2cc(NC(=O)C3CC3)ncc12` [Example 212, N-(5-(5-chlorobenzo[d]oxazol-2-yl)-8-(methylamino)-2,7-naphthyridin-3-yl)cyclopropanecarboxamide] were no more than 100 nM and no more than 500 nM.
